Holding throughout (assay): Drug affinity chromatography with c-ponatinib and LC-MS/MS (ponatinib interactome)
Assay type in all cases: binding

The target of assay [1] is T1, proteins of U2OS cell lysate (Homo sapiens, UniProt P62805).
T1 construct: Proteins enriched by c-ponatinib from U2OS cell lysate; endogenous in cells; host or cells: U2OS cell lysate
In short, it runs like this:
(§1)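 Proteins were identified by nano-UPLC–MS/MS after elution with formic acid and trypsin digestion. They were captured from U2OS lysate (2 mg protein per pulldown, NP-40 buffer) on amine-coupled NHS beads during a 2 h incubation at 4 °C.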

The target in assay [2] is T2, proteins of U2OS cell lysate (Homo sapiens, UniProt P60228).
T2 construct: Proteins enriched by c-ponatinib from U2OS cell lysate; endogenous in cells; host or cells: U2OS cell lysate
In short, it runs like this:
as §1

Assay [3] concerns the target T3, proteins of U2OS cell lysate (Homo sapiens, UniProt Q01130).
T3 construct: Proteins enriched by c-ponatinib from U2OS cell lysate; endogenous in cells; host or cells: U2OS cell lysate
In short, it runs like this: as §1

The target in assay [4] is T4, proteins of U2OS cell lysate (Homo sapiens, UniProt Q99832).
T4 construct: Proteins enriched by c-ponatinib from U2OS cell lysate; endogenous in cells; host or cells: U2OS cell lysate
The method in brief:
as §1

For assay [5], the target named is T5, proteins of U2OS cell lysate (Homo sapiens, UniProt P28074).
T5 construct: Proteins enriched by c-ponatinib from U2OS cell lysate; endogenous in cells; host or cells: U2OS cell lysate
In short, it runs like this: as §1

The target of assay [6] is T6, proteins of U2OS cell lysate (Homo sapiens, UniProt P40227).
T6 construct: Proteins enriched by c-ponatinib from U2OS cell lysate; endogenous in cells; host or cells: U2OS cell lysate
In short, it runs like this:
as §1

In assay [7] the target is T7, proteins of U2OS cell lysate (Homo sapiens, UniProt P28072).
T7 construct: Proteins enriched by c-ponatinib from U2OS cell lysate; endogenous in cells; host or cells: U2OS cell lysate
The method in brief: as §1

The target in assay [8] is T8, proteins of U2OS cell lysate (Homo sapiens, UniProt P17987).
T8 construct: Proteins enriched by c-ponatinib from U2OS cell lysate; endogenous in cells; host or cells: U2OS cell lysate
The method in brief: as §1

Assay [9] concerns the target T9, proteins of U2OS cell lysate (Homo sapiens, UniProt O75369).
T9 construct: Proteins enriched by c-ponatinib from U2OS cell lysate; endogenous in cells; host or cells: U2OS cell lysate
The method in brief:
as §1

Assay [10] has as its target T10, proteins of U2OS cell lysate (Homo sapiens, UniProt Q13409).
T10 construct: Proteins enriched by c-ponatinib from U2OS cell lysate; endogenous in cells; host or cells: U2OS cell lysate
In short, it runs like this:
as §1

The target of assay [11] is T11, proteins of U2OS cell lysate (Homo sapiens, UniProt P52907).
T11 construct: Proteins enriched by c-ponatinib from U2OS cell lysate; endogenous in cells; host or cells: U2OS cell lysate
The method in brief:
as §1

T2 sequence (P60228 whole entry): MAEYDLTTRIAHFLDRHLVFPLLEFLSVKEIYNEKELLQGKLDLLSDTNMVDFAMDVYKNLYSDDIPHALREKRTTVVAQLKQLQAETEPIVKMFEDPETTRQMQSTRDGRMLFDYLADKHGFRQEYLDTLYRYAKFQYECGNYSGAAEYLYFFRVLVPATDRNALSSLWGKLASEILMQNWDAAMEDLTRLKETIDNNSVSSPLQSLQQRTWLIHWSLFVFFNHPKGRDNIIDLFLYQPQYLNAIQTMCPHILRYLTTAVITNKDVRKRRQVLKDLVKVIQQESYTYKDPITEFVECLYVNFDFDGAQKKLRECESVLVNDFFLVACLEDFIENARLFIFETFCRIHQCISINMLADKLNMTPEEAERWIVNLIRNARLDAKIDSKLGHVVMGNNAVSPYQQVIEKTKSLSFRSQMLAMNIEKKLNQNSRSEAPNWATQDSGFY
T4 sequence (Q99832 whole entry): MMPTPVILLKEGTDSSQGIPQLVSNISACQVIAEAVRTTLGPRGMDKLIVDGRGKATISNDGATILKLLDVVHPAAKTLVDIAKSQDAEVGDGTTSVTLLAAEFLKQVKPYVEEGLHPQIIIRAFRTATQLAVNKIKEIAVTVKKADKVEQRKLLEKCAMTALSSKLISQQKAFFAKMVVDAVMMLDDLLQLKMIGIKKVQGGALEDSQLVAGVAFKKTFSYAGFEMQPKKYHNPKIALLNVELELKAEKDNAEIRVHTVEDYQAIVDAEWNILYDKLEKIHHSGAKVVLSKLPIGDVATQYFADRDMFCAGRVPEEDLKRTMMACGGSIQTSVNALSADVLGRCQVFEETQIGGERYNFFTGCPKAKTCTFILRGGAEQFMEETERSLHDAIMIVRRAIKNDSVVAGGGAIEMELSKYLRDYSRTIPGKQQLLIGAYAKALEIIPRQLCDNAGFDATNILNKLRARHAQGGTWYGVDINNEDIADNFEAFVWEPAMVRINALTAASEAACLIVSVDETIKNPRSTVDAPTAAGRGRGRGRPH
T5 sequence (P28074 60-263): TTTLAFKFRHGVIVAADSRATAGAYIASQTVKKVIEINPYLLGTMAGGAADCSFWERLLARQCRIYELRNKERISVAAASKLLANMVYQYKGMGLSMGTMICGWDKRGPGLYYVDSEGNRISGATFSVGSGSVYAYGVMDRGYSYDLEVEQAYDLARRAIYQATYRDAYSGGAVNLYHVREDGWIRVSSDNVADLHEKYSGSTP
T7 sequence (P28072 whole entry): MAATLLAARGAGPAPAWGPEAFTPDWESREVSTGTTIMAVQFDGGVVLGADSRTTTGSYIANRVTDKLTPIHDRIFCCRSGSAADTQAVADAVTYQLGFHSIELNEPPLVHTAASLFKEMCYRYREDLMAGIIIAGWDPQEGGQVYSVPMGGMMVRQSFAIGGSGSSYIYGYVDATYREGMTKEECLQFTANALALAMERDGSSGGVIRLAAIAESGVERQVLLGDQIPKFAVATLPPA
T10 sequence (Q13409 whole entry): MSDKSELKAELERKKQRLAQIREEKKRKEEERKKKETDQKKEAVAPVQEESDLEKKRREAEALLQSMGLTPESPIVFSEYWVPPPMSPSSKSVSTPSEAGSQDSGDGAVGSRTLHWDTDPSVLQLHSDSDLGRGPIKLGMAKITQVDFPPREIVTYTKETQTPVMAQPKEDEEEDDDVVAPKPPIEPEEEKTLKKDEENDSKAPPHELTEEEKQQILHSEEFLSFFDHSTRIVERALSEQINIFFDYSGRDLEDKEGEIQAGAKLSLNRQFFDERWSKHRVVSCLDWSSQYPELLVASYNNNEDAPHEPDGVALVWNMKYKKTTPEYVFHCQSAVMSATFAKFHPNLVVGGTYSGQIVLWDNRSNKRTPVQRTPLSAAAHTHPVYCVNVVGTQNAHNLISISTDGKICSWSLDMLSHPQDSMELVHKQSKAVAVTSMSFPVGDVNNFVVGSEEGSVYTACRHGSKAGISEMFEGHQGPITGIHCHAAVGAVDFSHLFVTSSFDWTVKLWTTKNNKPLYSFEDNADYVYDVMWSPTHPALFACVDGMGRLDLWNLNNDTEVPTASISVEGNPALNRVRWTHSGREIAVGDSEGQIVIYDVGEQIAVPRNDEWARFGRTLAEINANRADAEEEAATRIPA
T9 sequence (O75369 whole entry): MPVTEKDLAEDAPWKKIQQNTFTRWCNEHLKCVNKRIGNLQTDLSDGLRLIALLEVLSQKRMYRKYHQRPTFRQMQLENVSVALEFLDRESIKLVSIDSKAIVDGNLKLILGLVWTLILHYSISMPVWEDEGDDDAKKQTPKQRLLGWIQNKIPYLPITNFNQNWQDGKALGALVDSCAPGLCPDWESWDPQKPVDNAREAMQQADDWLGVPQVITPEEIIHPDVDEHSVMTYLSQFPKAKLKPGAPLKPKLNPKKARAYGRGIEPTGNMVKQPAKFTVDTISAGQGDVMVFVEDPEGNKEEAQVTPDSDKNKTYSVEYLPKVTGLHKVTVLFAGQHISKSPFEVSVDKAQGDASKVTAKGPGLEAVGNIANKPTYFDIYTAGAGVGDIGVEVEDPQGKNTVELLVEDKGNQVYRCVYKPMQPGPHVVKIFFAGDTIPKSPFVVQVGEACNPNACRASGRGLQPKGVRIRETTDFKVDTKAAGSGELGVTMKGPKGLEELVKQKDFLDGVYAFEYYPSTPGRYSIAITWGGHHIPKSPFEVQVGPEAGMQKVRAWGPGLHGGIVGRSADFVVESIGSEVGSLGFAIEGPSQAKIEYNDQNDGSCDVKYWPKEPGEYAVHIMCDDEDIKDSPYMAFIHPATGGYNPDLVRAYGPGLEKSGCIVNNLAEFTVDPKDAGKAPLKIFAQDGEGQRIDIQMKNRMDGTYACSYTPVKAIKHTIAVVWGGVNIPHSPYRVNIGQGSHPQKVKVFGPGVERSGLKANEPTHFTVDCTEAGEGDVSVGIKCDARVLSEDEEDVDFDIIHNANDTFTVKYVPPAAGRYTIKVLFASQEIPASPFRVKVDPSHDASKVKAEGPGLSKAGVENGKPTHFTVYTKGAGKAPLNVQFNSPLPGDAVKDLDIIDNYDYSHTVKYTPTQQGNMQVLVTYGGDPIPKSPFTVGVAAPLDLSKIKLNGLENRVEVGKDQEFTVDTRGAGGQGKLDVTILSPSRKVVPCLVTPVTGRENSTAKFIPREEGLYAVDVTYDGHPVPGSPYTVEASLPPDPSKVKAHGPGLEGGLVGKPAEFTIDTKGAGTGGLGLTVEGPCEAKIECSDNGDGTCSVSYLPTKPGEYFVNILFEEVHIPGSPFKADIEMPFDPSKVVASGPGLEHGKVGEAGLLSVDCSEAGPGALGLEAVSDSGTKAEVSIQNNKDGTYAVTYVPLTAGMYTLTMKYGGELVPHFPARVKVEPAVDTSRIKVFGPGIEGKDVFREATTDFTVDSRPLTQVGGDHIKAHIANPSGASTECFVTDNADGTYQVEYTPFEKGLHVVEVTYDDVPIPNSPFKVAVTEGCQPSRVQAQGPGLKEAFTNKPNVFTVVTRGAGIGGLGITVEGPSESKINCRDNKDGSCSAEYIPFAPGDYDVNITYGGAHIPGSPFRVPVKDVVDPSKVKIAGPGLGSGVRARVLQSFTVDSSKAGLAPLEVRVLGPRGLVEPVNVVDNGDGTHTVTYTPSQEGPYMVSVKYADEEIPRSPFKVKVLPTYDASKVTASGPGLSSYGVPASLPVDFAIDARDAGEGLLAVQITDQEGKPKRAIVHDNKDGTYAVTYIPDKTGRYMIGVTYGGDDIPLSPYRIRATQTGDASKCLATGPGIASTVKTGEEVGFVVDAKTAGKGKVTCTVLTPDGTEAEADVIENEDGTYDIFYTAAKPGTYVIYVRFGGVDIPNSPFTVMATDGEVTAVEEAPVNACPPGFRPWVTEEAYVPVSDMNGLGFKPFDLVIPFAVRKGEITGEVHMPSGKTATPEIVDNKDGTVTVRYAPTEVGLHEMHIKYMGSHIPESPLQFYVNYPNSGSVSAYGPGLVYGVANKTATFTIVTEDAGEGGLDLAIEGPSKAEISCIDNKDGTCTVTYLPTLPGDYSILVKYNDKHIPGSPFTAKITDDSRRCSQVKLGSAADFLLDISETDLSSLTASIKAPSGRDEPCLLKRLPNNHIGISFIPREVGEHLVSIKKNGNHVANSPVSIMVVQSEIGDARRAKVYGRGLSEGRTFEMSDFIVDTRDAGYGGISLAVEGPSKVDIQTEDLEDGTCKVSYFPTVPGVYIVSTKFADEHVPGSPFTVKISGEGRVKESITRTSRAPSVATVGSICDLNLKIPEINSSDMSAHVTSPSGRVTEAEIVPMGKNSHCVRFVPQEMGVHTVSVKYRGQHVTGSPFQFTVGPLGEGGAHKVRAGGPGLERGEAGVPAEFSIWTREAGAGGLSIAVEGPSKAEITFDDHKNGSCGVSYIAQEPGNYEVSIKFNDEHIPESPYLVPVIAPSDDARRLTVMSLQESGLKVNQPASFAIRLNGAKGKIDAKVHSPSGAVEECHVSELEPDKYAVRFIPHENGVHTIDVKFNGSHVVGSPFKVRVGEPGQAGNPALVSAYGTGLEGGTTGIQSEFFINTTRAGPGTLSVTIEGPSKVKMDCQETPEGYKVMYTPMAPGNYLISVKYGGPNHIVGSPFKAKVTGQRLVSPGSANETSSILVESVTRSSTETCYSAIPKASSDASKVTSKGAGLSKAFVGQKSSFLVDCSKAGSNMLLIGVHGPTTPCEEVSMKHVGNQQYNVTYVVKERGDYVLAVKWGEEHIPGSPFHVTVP
T3 sequence (Q01130 whole entry): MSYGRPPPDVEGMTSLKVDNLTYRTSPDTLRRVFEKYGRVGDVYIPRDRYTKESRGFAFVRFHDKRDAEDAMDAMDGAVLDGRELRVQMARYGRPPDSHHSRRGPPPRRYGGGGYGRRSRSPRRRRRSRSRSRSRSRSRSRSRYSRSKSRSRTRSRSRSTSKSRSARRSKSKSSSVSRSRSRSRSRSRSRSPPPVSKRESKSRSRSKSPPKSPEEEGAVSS

As to `Cc1ccc(C(=O)Nc2ccc(CN3CCN(C)CC3)c(C(F)(F)F)c2)cc1C#Cc1cnc2cccnn12` [PON], the “Average LFQ PON_WT” value in assay [1] (HIST1H4A, Histone H4) came out at 22.1811; in [2] (EIF3E, Eukaryotic translation initiation factor 3 subunit E) it was 22.7111; in [3] (SRSF2, Serine/arginine-rich splicing factor 2), 22.8743; in [4] (CCT7, T-complex protein 1 subunit eta), 22.9495; in assay [5] (PSMB5, Proteasome subunit beta type-5), 21.73; in assay [6] (CCT6A, T-complex protein 1 subunit zeta) it was 22.8673. In addition, the “Average LFQ PON_WT” value in assay [7] (PSMB6, Proteasome subunit beta type-6) was 22.7359; in [8] (TCP1, T-complex protein 1 subunit alpha) it was 22.697; in assay [9] (FLNB, Filamin-B) it was 21.8609; in assay [10] (DYNC1I2, Cytoplasmic dynein 1 intermediate chain 2), 22.2038; in assay [11] (CAPZA1, F-actin-capping protein subunit alpha-1), 21.8548.
As for `Cc1ccc(C(=O)Nc2ccc(CN3CCN(CCCN)CC3)c(C(F)(F)F)c2)cc1C#Cc1cnc2cccnn12` [c-ponatinib, reference compound], the “Average LFQ intensity” value in assay [1] (captured protein HIST1H4A, Rank 180) was 22.1811; in assay [2] (captured protein EIF3E, Rank 148), 22.7111; in assay [3] (captured protein SRSF2, Rank 132), 22.8743; in assay [4] (captured protein CCT7, Rank 127), 22.9495; in assay [5] (captured protein PSMB5, Rank 211), 21.7301; in [6] (captured protein CCT6A, Rank 133) it was 22.8673. Besides, the “Average LFQ intensity” value in assay [7] (captured protein PSMB6, Rank 145) is 22.7359; in assay [8] (captured protein TCP1, Rank 149) it was 22.697; in [9] (captured protein FLNB, Rank 198), 21.8609; in [10] (captured protein DYNC1I2, Rank 179), 22.2038; in assay [11] (captured protein CAPZA1, Rank 200), 21.8548.

These data come from article PMC6120666 (The EMBO Journal, 2018).
